Laboratory results: patent publication US20250127162A1, “METHODS AND COMPOSITIONS FOR CONTROLLING PESTS IN RICE” (Globachem NV, priority 2022, published 2025)

Tests used:
Oryzaphagus oryzae = assay: Rice field trials, number of Oryzaphagus oryzae (Example 2, Trials 1-2, Brazil); format: in vivo; settings: 3 days after application; for Number of Oryzaphagus oryzae, Average: average of 4 repetitions; for Number of Oryzaphagus oryzae, Repetition A / Number of Oryzaphagus oryzae, Repetition B / Number of Oryzaphagus oryzae, Repetition C / Number of Oryzaphagus oryzae, Repetition D: one application
Protocol: (§1) All applications were made with an EC formulation containing 650 g/L of pelargonic acid (e.g., 685 g/L of 95% purity pelargonic acid), an anionic emulsifier and a branched fatty acid ester solvent.
Trials 1-2 assessing the use of pelargonic acid for controlling Oryzaphagus oryzae in rice were conducted in Brazil. One application was made 5 days after the first flood irrigation. Assessments of the number of Oryzaphagus oryzae were made three (3) days after application for each of the four (4) repetitions at each dose rate.

Rice = assay: Phytotoxicity on rice (Example 1, Trials 1-2, Spain); format: in vivo; set-up: key: % leaf necrosis/discoloration vs untreated plants; settings: applications AB
From the text: “Low Phytotoxicity” of pelargonic acid, as used herein means that the toxic effect on plants is absent or at such a level so as not to adversely impact the growth and/or yield of the plant under a given set of test conditions, e.g., at a given concentration of pelargonic acid. Phytotoxic effects may be measured in a number of different ways, for example, according to the principals set out in OEPP/EPPO Bulletin (2014) 44 (3), 265-273 “PP 1/135 (4) Phytotoxicity assessment”. The phytotoxic effect on plants may be assessed visually as a function of the percentage of discoloration to the leaves and/or the appearance of necrosis. When the pelargonic acid compositions are applied to the foliage of the rice plants in accordance with the teachings herein, will typically result in a level of phytotoxicity of less than 20%, preferably less than 15%, more preferably less than 10% necrosis of the leaves in comparison to untreated plants. Preferred uses of the invention will typically result in phytotoxicity of 7% or less, whilst the most preferred uses will typically result in phytotoxicity of 5% or less. The above values are approximate as any purely visual assessment is likely to contain a degree of subjectivity.
as §1
Application A was made to the crops at the beginning of infestations; for these trials, Stage BBCH 59; Application B was made 14 days after Application A.
Trial 1 was conducted in Spain using a water volume of 300 L/ha of water per application unless otherwise indicated. Pest Incidence/Number of Insects (PESINC) and Pest Severity (PESSEV) as a Percent of Untreated Check (% UNCK) as well as Phytotoxicity were assessed at various treatment evaluation intervals.
Trial 2 was conducted in Spain using a water volume of 300 L/ha of water per application unless otherwise indicated. Pest Incidence/Number of Insects (PESINC) and Pest Severity (PESSEV) as a Percent of Untreated Check (% UNCK) as well as Phytotoxicity were assessed at various treatment evaluation intervals.

[1] = Trial 1, listed as PA 487.5 g/ha
[2] = Trial 1, listed as PA 1300 g/ha
[3] = Trial 2, listed as PA 487.5 g/ha
[4] = Trial 2, listed as PA 1300 g/ha

Structure (SMILES): CCCCCCCCC(=O)O [PA 650 g/ha, pelargonic acid]
- E % (Oryzaphagus oryzae; Trial 1): 90%
- Number of Oryzaphagus oryzae, Average (Oryzaphagus oryzae; Trial 1): 0.25 b
- Number of Oryzaphagus oryzae, Average (Oryzaphagus oryzae; [1]): 0.5 b
- Number of Oryzaphagus oryzae, Average (Oryzaphagus oryzae; Trial 1, listed as PA 975 g/ha): 0.25 b
- Number of Oryzaphagus oryzae, Average (Oryzaphagus oryzae; [2]): 0 b
- E % (Oryzaphagus oryzae; [1]): 80%
- E % (Oryzaphagus oryzae; Trial 1, listed as PA 975 g/ha): 90%
- E % (Oryzaphagus oryzae; [2]): 100%
- Number of Oryzaphagus oryzae, Repetition A (Oryzaphagus oryzae; Trial 1): 1
- Number of Oryzaphagus oryzae, Repetition B (Oryzaphagus oryzae; Trial 1): 0
- Number of Oryzaphagus oryzae, Repetition C (Oryzaphagus oryzae; Trial 1): 0
- Number of Oryzaphagus oryzae, Repetition D (Oryzaphagus oryzae; Trial 1): 0
- Number of Oryzaphagus oryzae, Repetition A (Oryzaphagus oryzae; [1]): 0
- Number of Oryzaphagus oryzae, Repetition B (Oryzaphagus oryzae; [1]): 1
- Number of Oryzaphagus oryzae, Repetition C (Oryzaphagus oryzae; [1]): 1
- Number of Oryzaphagus oryzae, Repetition D (Oryzaphagus oryzae; [1]): 0
- Number of Oryzaphagus oryzae, Repetition A (Oryzaphagus oryzae; Trial 1, listed as PA 975 g/ha): 0
- Number of Oryzaphagus oryzae, Repetition B (Oryzaphagus oryzae; Trial 1, listed as PA 975 g/ha): 0
- Number of Oryzaphagus oryzae, Repetition C (Oryzaphagus oryzae; Trial 1, listed as PA 975 g/ha): 0
- Number of Oryzaphagus oryzae, Repetition D (Oryzaphagus oryzae; Trial 1, listed as PA 975 g/ha): 1
- Number of Oryzaphagus oryzae, Repetition A (Oryzaphagus oryzae; [2]): 0
- Number of Oryzaphagus oryzae, Repetition B (Oryzaphagus oryzae; [2]): 0
- Number of Oryzaphagus oryzae, Repetition C (Oryzaphagus oryzae; [2]): 0
- Number of Oryzaphagus oryzae, Repetition D (Oryzaphagus oryzae; [2]): 0
- E % (Oryzaphagus oryzae; Trial 2): 77.78%
- Number of Oryzaphagus oryzae, Average (Oryzaphagus oryzae; Trial 2): 0.5 ab
- Number of Oryzaphagus oryzae, Average (Oryzaphagus oryzae; [3]): 0.75 ab
- Number of Oryzaphagus oryzae, Average (Oryzaphagus oryzae; Trial 2, listed as PA 975 g/ha): 0.25 b
- Number of Oryzaphagus oryzae, Average (Oryzaphagus oryzae; [4]): 0 b
- E % (Oryzaphagus oryzae; [3]): 66.67%
- E % (Oryzaphagus oryzae; Trial 2, listed as PA 975 g/ha): 88.89%
- E % (Oryzaphagus oryzae; [4]): 100%
- Number of Oryzaphagus oryzae, Repetition A (Oryzaphagus oryzae; Trial 2): 1
- Number of Oryzaphagus oryzae, Repetition B (Oryzaphagus oryzae; Trial 2): 0
- Number of Oryzaphagus oryzae, Repetition C (Oryzaphagus oryzae; Trial 2): 0
- Number of Oryzaphagus oryzae, Repetition D (Oryzaphagus oryzae; Trial 2): 1
- Number of Oryzaphagus oryzae, Repetition A (Oryzaphagus oryzae; [3]): 0
- Number of Oryzaphagus oryzae, Repetition B (Oryzaphagus oryzae; [3]): 1
- Number of Oryzaphagus oryzae, Repetition C (Oryzaphagus oryzae; [3]): 2
- Number of Oryzaphagus oryzae, Repetition D (Oryzaphagus oryzae; [3]): 0
- Number of Oryzaphagus oryzae, Repetition A (Oryzaphagus oryzae; Trial 2, listed as PA 975 g/ha): 1
- Number of Oryzaphagus oryzae, Repetition B (Oryzaphagus oryzae; Trial 2, listed as PA 975 g/ha): 0
- Number of Oryzaphagus oryzae, Repetition C (Oryzaphagus oryzae; Trial 2, listed as PA 975 g/ha): 0
- Number of Oryzaphagus oryzae, Repetition D (Oryzaphagus oryzae; Trial 2, listed as PA 975 g/ha): 0
- Number of Oryzaphagus oryzae, Repetition A (Oryzaphagus oryzae; [4]): 0
- Number of Oryzaphagus oryzae, Repetition B (Oryzaphagus oryzae; [4]): 0
- Number of Oryzaphagus oryzae, Repetition C (Oryzaphagus oryzae; [4]): 0
- Number of Oryzaphagus oryzae, Repetition D (Oryzaphagus oryzae; [4]): 0
- Phytotoxicity (Rice; Trial 1 (PESINC table), water volume 150 L/ha): 0
- Phytotoxicity (Rice; Trial 1 (PESINC table), water volume 300 L/ha): 0
- Phytotoxicity (Rice; Trial 1 (PESSEV table), water volume 150 L/ha): 0
- Phytotoxicity (Rice; Trial 1 (PESSEV table), water volume 300 L/ha): 0
